Source: ChEMBL document CHEMBL1137000, “Synthesis and antibacterial activity of some novel imidazole-based dicationic quinolinophanes” (2009)
In brackets after ≈: the same amount, converted by molar mass.

Experiments:
Format in all cases: functional
Escherichia coli = experiment: Antibacterial activity against Escherichia coli after 48 hrs by agar well diffusion method
Vibrio cholerae = experiment: Antibacterial activity against Vibrio cholerae after 48 hrs by agar well diffusion method
Staphylococcus aureus = experiment: Antibacterial activity against Staphylococcus aureus after 48 hrs by agar well diffusion method
Pseudomonas aeruginosa = experiment: Antibacterial activity against Pseudomonas aeruginosa after 48 hrs by agar well diffusion method
Shigella sp. = experiment: Antibacterial activity against Shigella sp. after 48 hrs by agar well diffusion method
Klebsiella pneumoniae = experiment: Antibacterial activity against Klebsiella pneumoniae after 48 hrs by agar well diffusion method

Structure (SMILES) | MIC (Escherichia coli) [µg/mL] | MIC (Vibrio cholerae) [µg/mL] | MIC (Staphylococcus aureus) [µg/mL] | MIC (Pseudomonas aeruginosa) [µg/mL] | MIC (Shigella sp.) [µg/mL] | MIC (Klebsiella pneumoniae) [µg/mL]
[Br-].[Br-].c1cc2cc(c1)C[n+]1cn(c3ccccc31)Cc1cc3ccccc3nc1Oc1ccc3ccccc3c1-c1c(ccc3ccccc13)Oc1nc3ccccc3cc1Cn1c[n+](c3ccccc31)C2 | 15 | 10 | 15 | 25 | 10 | 15
[Br-].[Br-].c1cc2nc(c1)C[n+]1cn(c3ccccc31)Cc1cc3ccccc3nc1Oc1ccccc1Oc1nc3ccccc3cc1Cn1c[n+](c3ccccc31)C2 | 35 | 30 | 35 | 25 | 40 | 45
[Br-].[Br-].c1cc2nc(c1)C[n+]1ccn(c1)Cc1cc3ccccc3nc1Oc1ccc3ccccc3c1-c1c(ccc3ccccc13)Oc1nc3ccccc3cc1Cn1cc[n+](c1)C2 | 10 | 10 | 15 | 20 | 10 | 15
[Br-].[Br-].c1cc2nc(c1)C[n+]1cn(c3ccccc31)Cc1cc3ccccc3nc1Oc1ccc3ccccc3c1-c1c(ccc3ccccc13)Oc1nc3ccccc3cc1Cn1c[n+](c3ccccc31)C2 | 30 | 45 | 45 | 20 | 45 | 30
[Br-].[Br-].c1cc2cc(c1)C[n+]1ccn(c1)Cc1cc3ccccc3nc1Oc1ccc3ccccc3c1-c1c(ccc3ccccc13)Oc1nc3ccccc3cc1Cn1cc[n+](c1)C2 | 20 | 10 | 15 | 25 | 15 | 10
[Br-].[Br-].c1cc2cc(c1)C[n+]1ccn(c1)Cc1cc3ccccc3nc1Oc1ccccc1Oc1nc3ccccc3cc1Cn1cc[n+](c1)C2 | 30 | 35 | 45 | 30 | 45 | 40
[Br-].[Br-].c1cc2cc(c1)C[n+]1cn(c3ccccc31)Cc1cc3ccccc3nc1Oc1ccccc1Oc1nc3ccccc3cc1Cn1c[n+](c3ccccc31)C2 | 30 | 25 | 45 | 40 | 55 | 60
[Br-].[Br-].c1cc2nc(c1)C[n+]1ccn(c1)Cc1cc3ccccc3nc1Oc1ccccc1Oc1nc3ccccc3cc1Cn1cc[n+](c1)C2 | 20 | 15 | 30 | 25 | 25 | 25
CN[C@@H]1[C@H](O[C@H]2[C@H](O[C@H]3[C@H](O)[C@@H](O)[C@H](N=C(N)N)[C@@H](O)[C@@H]3N=C(N)N)O[C@@H](C)[C@]2(O)C=O)O[C@@H](CO)[C@H](O)[C@H]1O [STREPTOMYCIN] | 20 (≈ 34.4 µM) | 25 (≈ 43 µM) | 25 (≈ 43 µM) | 45 (≈ 77.4 µM) | 25 (≈ 43 µM) | 25 (≈ 43 µM)
